{"source": "patent US10239871B2", "about": "“Compounds and methods for regulating integrins” (ADHAERE PHARMACEUTICALS, INC., priority 2012, dated 2019)", "key": {"[1]": {"system": "balloon-induced arterial injury", "assay": "Balloon-induced arterial injury in rats (neointima)", "assay_type": "in vivo, rat", "protocol": "All surgeries were performed under anesthesia by isoflurane (Baxter). Activating mAb ED7 (4 mg/kg/d), the isotype control mIgG1 (4 mg/kg/d, Rockland) and the leukadherin LA1 (1 mg/kg/d) were each administered intra peritoneally (i.p.) in saline daily until the end of the experiment. Balloon injury in the right iliac artery was inflicted with a 2F Fogarty catheter (Baxter) adapted to a custom angiographic kit (Boston Scientific, Scimed). An aortotomy in the abdominal aorta was made to insert a catheter to the level of the right iliac artery. The balloon was inflated to 1.5 to 1.6 atmospheres and retracted to the arteriotomy site three times. The aortic excision was repaired with eight sutures. The abdominal cavity was closed by planes with an interrupted suture pattern. Arterial specimens were collected 21 days after injury and fixed in 4% formalin-PBS (Sigma-Aldrich) for 5 minutes and analyzed by histology and immunostaining. Neointima were measured in H&E stained slides using ImagePro.\nDespite significant technological advances in PCI, restenosis (re-narrowing) secondary to neointimal hyperplasia remains a major complication limiting the success of coronary interventions in 5-25% of patients. The recruitment of inflammatory macrophages and other leukocytes precedes neointimal hyperplasia. The denudation of endothelial cell lining at the site of mechanical vascular injury during a PCI procedure leads to the deposition of fibrin and platelets, where selective binding between the platelet cell surface receptor GP lb[…] and leukocytic CD11b/CD18 leads to the migration and recruitment of these inflammatory cells. Indeed, in experimental models, it has been shown that the genetic ablation of CD11b (CD11b−/− animals) or its blockade (using biological antagonists) can reduce neointima formation after angioplasty or stent implantation. […] Here, this experimental arterial balloon injury model was used to examine the relative efficacy of the two types of agonists, in a head-to-head comparison, on inflammatory responses in vivo. First, the dose-dependence of LA1 in this model system was determined. LA1 was administered at two different doses (0.05 or 1 mg/kg/d, intraperitoneal (i.p.)), or the vehicle (DMSO), in a saline solution to SD male rats 30 minutes prior to injury and continued daily injections for the next three weeks and subsequently measured the extent of vascular injury via tissue histology (FIGS. 14A-14D). Data shown are mean±SEM. *p<0.05, **p<0.001.\nNext, in order to examine the relative efficacy of LA1 and ED7, LA1 (1 mg/kg/d) or ED7 (4 mg/kg/d) were administered to SD male rats 30 minutes prior to balloon injury and continued daily for the next 21 days. An isotype control antibody (mIgG1, 4 mg/kg/d) was administered to the control group of animals. […] Data shown are mean±SEM. *p<0.05, ***p<0.0001, ns=not significant."}, "[2]": {"system": "CD11b+ macrophages in injured arteries", "assay": "Flow cytometric quantitation of arterial macrophages in injured arteries", "assay_type": "in vivo, rat", "conditions": "7 days after balloon injury; LA1 1 mg/kg/d; ED7 1 and 3.3 mg/kg/d", "protocol": "Agonist treated and control balloon-injured Fisher 344 rats were sacrificed 7 days post surgery at the onset of inflammation. The injured and non-injured iliac arteries were microdissected and digested with Collagenase/Elastase mix (Worthington Biochemical, NY) in DMEM containing 2% FBS for 2 hours at 37° C. The resulting single cell suspension was washed with cold PBS containing 2% FBS and filtered through […] sieve. Cells were re-suspended cold PBS containing 2% FBS at a concentration of 10^6 cells per 100 μl and stained with biotinylated anti-rat CD11b antibody (clone WT.5, BD Biosciences) for 1 hour at 4° C. […] Cells were washed twice with the assay buffer and analyzed using FACS II Canto cytometer and the data were analyzed using FlowJo (Tree Star Inc.) software. […]\nNext, to determine whether either type of agonist (chemical LA1 and biologic activating antibody) has a therapeutic advantage over the other, a head-to-head comparison was performed using this in vivo model. […] Next, the arteries were analyzed to quantify the number of infiltrated macrophages in the presence of agonists LA1 or ED7 and compared it to vehicle treated animals. The arteries were harvested from animals 7 days after balloon injury and single cell suspensions were analyzed by flow cytometry (using anti-rat CD11b antibody WT.5) to quantitate CD11b+ macrophages in each sample. […]"}, "Cl66 cells": {"system": "Cl66 cells", "assay": "Orthotopic Cl66 mammary adenocarcinoma tumor growth, with or without Taxol", "assay_type": "in vivo", "conditions": "BALB/c mice", "protocol": "The syngeneic murine mammary adenocarcinoma cell line Cl66 (moderately metastatic and is related to the highly metastatic 4T1 cell line) was orthotopically introduced in Balb/c animals, by injecting ˜5×10^5 Cl66 cells under the left mammary fat pad of WT BALB/c mice (approx. 8-10 weeks old). The tumor size was measured using calipers every other day until the end of the experiment (approx. 5 weeks). 7-days post implantation, the tumors in all animals became palpable, with an average size of ˜100 mm3. At that time, animals in each group were treated as described. LA1 was administered daily for the first two weeks and then every other day until the end of the experiment. Animals in Group 1 received Saline injections, as control. […] It can also enhance the efficacy of traditional chemotherapy in various cancers, including breast cancer, to produce a synergistic response to the treatment. It can also reduce the incidence and the size of metastases."}, "T-cell proliferation": {"system": "T-cell proliferation", "assay": "Mixed lymphocyte reaction (MLR)", "assay_type": "cell-based"}, "[3]": {"system": "T cells from the draining lymph nodes", "assay": "IFN production by antigen-reactive T cells (MOG-peptide)", "assay_type": "cell-based, mice", "conditions": "antigen dose-dependent", "protocol": "Additionally, LA1 decreased IFN-[…] production by T-cells in an antigen dose-dependent fashion (MOG-peptide, data not shown) when antigen-reactive T cells from the draining lymph nodes of mice were assessed."}, "Human macrophages": {"system": "Human macrophages", "assay": "TNF-α release from human macrophages", "assay_type": "cell-based"}, "[4]": {"conditions": "LA1 1 mg/kg/d, ED7 4 mg/kg/d, 21 days"}}, "note": "Entries after “also recorded” stand apart in the source; their conditions may differ."}
{"molecule": "O=C(O)c1ccc(-c2ccc(/C=C3\\SC(=S)N(Cc4ccccc4)C3=O)o2)cc1", "note": "[LA1]", "values": [{"measurement": "neointimal hyperplasia vs vehicle", "setting": "[1]; 0.05 or 1 mg/kg/d i.p., three weeks, SD male rats", "value": "significantly less neointimal hyperplasia"}, {"measurement": "dose dependence of reduction in mechanical vascular injury", "setting": "[1]; 0.05 vs 1 mg/kg/d i.p.", "value": "dose-dependent reduction"}, {"measurement": "neointima formation compared to the ED7 group", "setting": "[1]; LA1 1 mg/kg/d vs ED7 4 mg/kg/d, 21 days", "value": "significantly less neointima formation"}, {"measurement": "neointimal hyperplasia (NIH) / mechanical vascular injury, significance vs control group", "setting": "[1]; [4]", "value": "significant reduction in neointimal hyperplasia"}, {"measurement": "neointimal thickening vs control mAb IgG1-treated group", "setting": "[1]; [4]", "value": "reduced neointimal thickening"}, {"measurement": "CD11b+ macrophages in injured arteries vs vehicle", "setting": "[2]", "value": "significantly less CD11b/CD18 macrophages"}, {"measurement": "rate of tumor growth, co-treatment with Taxol", "setting": "Cl66 cells", "value": "highest reduction in the rate of tumor growth"}, {"measurement": "rate of tumor growth, single agent", "setting": "Cl66 cells; vs vehicle", "value": "significant reduction in the rate of tumor growth"}, {"measurement": "T-cell proliferation", "setting": "T-cell proliferation", "value": "dose-dependently reduces T-cell proliferation"}, {"measurement": "IFN-[…] production by T-cells", "setting": "[3]", "value": "decreased"}, {"measurement": "cellular morphology", "setting": "Human macrophages; LA1 alone", "value": "no effect on cellular morphology"}, {"measurement": "TNF-α release from stimulated macrophages", "setting": "Human macrophages; dsRNA antigen (R848) plus LA1, lupus patients and healthy volunteers", "value": "significantly reduced the TNF-α release; also recorded: significantly impaired"}, {"measurement": "TNF-α induction by LA1 alone", "setting": "Human macrophages; over 24 hrs", "value": "did not induce TNF-α"}]}
